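96-well plates; 48 h exposure; 5 concentrations. Endpoints by linear interpolation between flanking doses. Not reached: highest tested concentration assigned. GI50: concentration for 50% inhibition of growth. TGI: total growth inhibition.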
How the values were obtained:
Assay in all cases: inhibition of tumour cell growth, NCI panel, 48 h
HOP-92 NSCLC = system: HOP-92 NSCLC
SNB-19 CNS = system: SNB-19 CNS
HCC-2998 colon = system: HCC-2998 colon
HCT-15 colon = system: HCT-15 colon
MALME-3M melanoma = system: MALME-3M melanoma
A498 renal = system: A498 renal
TK-10 renal = system: TK-10 renal
SNB-75 CNS = system: SNB-75 CNS
SR leukemia = system: SR leukemia
MDA-MB-231 breast = system: MDA-MB-231 breast

Row | SMILES | TGI (HOP-92 NSCLC) | TGI (SNB-19 CNS) | TGI (HCC-2998 colon) | TGI (HCT-15 colon) | TGI (MALME-3M melanoma) | TGI (A498 renal) | TGI (TK-10 renal) | TGI (SNB-75 CNS) | TGI (SR leukemia) | GI50 (HOP-92 NSCLC) | GI50 (SNB-19 CNS) | GI50 (HCC-2998 colon) | GI50 (SNB-75 CNS) | GI50 (HCT-15 colon) | GI50 (SR leukemia) | GI50 (MDA-MB-231 breast) | TGI (MDA-MB-231 breast) | GI50 (A498 renal) | GI50 (TK-10 renal) | GI50 (MALME-3M melanoma)
1 | O=C1CCC(=O)C(C(=O)CCC(=O)Nc2ccc(Cl)cc2)C1 (configuration not stated) | > 100 µM | > 100 µM | > 100 µM | > 100 µM | > 100 µM | > 100 µM | > 100 µM |  |  |  |  |  |  |  |  |  |  |  |  | 
2 | COc1cc2ccc(C(=O)O)cc2cc1OC | > 100 µM | > 100 µM |  | > 100 µM | > 100 µM | > 100 µM | > 100 µM | > 100 µM |  |  |  |  |  |  |  |  |  |  |  | 
3 | O=C1NC(=Nc2ccccc2Cl)SC1C(=O)Nc1ccc([N+](=O)[O-])cc1[N+](=O)[O-] (configuration not stated) | > 100 µM | > 100 µM | > 100 µM | > 100 µM | > 100 µM | > 100 µM | > 100 µM | > 100 µM | > 100 µM |  |  |  |  |  |  |  |  |  |  | 
4 | N#CSc1cc(-c2nc3ccccc3o2)ccc1N | 64.2 µM | > 100 µM | > 100 µM | > 100 µM |  | > 82.2 µM | 52.3 µM | > 20.7 µM | > 100 µM | 22.4 µM | 59.7 µM | 22.6 µM | 1.83 µM | 23.2 µM | 0.203 µM | > 100 µM | > 100 µM | 31.2 µM | 19.2 µM | 
5 | C/C(=N/OCCC(=O)O)C1CC1 | > 100 µM | > 100 µM | > 100 µM | > 100 µM | > 100 µM |  | > 100 µM | > 100 µM | > 100 µM |  |  |  |  |  |  |  |  |  |  | 
6 | CC1(C)CC(=O)C=C(NC(=O)c2ccccc2)C1 | > 100 µM | > 100 µM | > 100 µM | > 100 µM | > 100 µM | > 100 µM | > 100 µM | > 100 µM |  |  |  |  |  |  |  |  |  |  |  | 
7 | Cc1c(-c2ccnc(N)n2)c2c(n1-c1ccccc1)C(=O)c1ccccc1C2=O | > 100 µM | > 100 µM | 46.5 µM | > 100 µM |  |  | 63.3 µM | > 100 µM | 3.84 µM | > 100 µM | 70 µM | 19.7 µM | 30 µM | 16 µM | 1.01 µM | 19.7 µM | 63.3 µM |  | 20.2 µM | 
8 | Cc1cccc2c1C(=O)OC2(c1cccc2ccccc12)c1cccc2ccccc12 |  | > 100 µM | > 100 µM | > 100 µM | > 100 µM | > 100 µM | > 100 µM | > 100 µM | > 100 µM |  |  |  |  |  |  |  |  |  |  | 
9 | CC(C)=CCCC1(C)C=Cc2c(ccc3c2[nH]c2cc(O)c(C)cc23)O1 (configuration not stated) | 10.2 µM | > 25 µM | 8.86 µM | 10.8 µM | 11 µM |  | > 25 µM |  | 14.7 µM | 4.22 µM | > 25 µM | 4.63 µM |  | 4.96 µM | 5.55 µM |  |  |  | 16.7 µM | 5.2 µM
10 | CCCN(CCC)c1c([N+](=O)[O-])cc(C(N)=O)cc1[N+](=O)[O-] |  |  | > 100 µM | > 100 µM | > 100 µM |  | > 100 µM | > 100 µM |  |  |  |  |  |  |  |  |  |  |  | 
11 | c1ccc2c(Nc3ccc4c(c3)OCO4)c3ccoc3nc2c1 | 43.3 µM | 81.3 µM | 29.6 µM | 45.6 µM | 34.3 µM | 29.1 µM | 42.9 µM |  | 29.3 µM | 12.7 µM | 26.5 µM | 12.5 µM |  | 14.7 µM | 3.98 µM |  |  | 14.4 µM | 19.4 µM | 15.9 µM
12 | O=C1/C(=C/c2ccccc2)CN(C(=O)Oc2ccccc2)C/C1=C\c1ccccc1 |  | 40.9 µM |  | > 100 µM | > 100 µM | > 100 µM | 42.5 µM | 17.5 µM |  |  |  |  |  |  |  |  |  |  |  | 
13 | CCOc1c(Cc2ccccc2)c(=O)n2c3ccccc3n3c(=O)n(C)c(=O)c1c23 | > 100 µM | > 100 µM | > 100 µM | > 100 µM | > 100 µM | > 100 µM | > 100 µM | 81.2 µM | > 100 µM |  |  |  |  |  |  |  |  |  |  | 
14 | CCc1cc2c(c3[nH]ccc13)[C@@H](C)C[C@H]2C | 32.6 µM |  | 38.3 µM | 30.9 µM | 35.4 µM | 30.2 µM | 36.8 µM | 38 µM |  |  |  |  |  |  |  |  |  |  |  | 
15 | CN(C)/C=C/C(=O)c1cccc(C(=O)/C=C/N(C)C)n1 | > 100 µM | > 100 µM | > 100 µM | > 100 µM | > 100 µM | > 100 µM | > 100 µM | > 100 µM | > 100 µM |  |  |  |  |  |  |  |  |  |  | 
16 | O=C(O)CSc1nnc(COc2ccccc2)n1-c1ccccc1 | > 100 µM |  | > 100 µM | > 100 µM | > 100 µM | > 100 µM | > 100 µM | > 100 µM | > 100 µM |  |  |  |  |  |  |  |  |  |  | 
17 | Cc1ccc(/C=C2\CN(C(=O)CCN3CCC(=NO)CC3)C/C(=C\c3ccc(C)cc3)C2=O)cc1 | 4.6 µM | 4.43 µM | 3.18 µM |  |  | 2.96 µM |  |  |  | 1.86 µM | 1.58 µM | 1.57 µM |  |  |  |  |  | 1.48 µM |  | 
18 | O=[P+](O)c1cc2c3ccccc3ccc2c2ccccc12 |  | > 100 µM | > 100 µM |  |  |  | > 100 µM | > 100 µM |  |  |  |  |  |  |  |  |  |  |  | 
19 | COC(=O)C1=C(c2cc(OC)c(OC)c(OC)c2)OC(c2cc(OC)c(OC)c(OC)c2)C1 (configuration not stated) | 36.5 µM | > 100 µM | 41.4 µM | > 100 µM | 72.3 µM | 51.4 µM | 63.9 µM | 78.1 µM | 60 µM |  |  |  |  |  |  |  |  |  |  | 
20 | COC(=O)CCCCCCCCC(=O)c1c(C)[nH]c(/C=C2\N=C(c3ccc[nH]3)C=C2OC)c1C | > 30.5 µM | > 100 µM | > 100 µM | > 57.7 µM | > 100 µM | > 100 µM | > 100 µM | > 83.7 µM |  | 4.73 µM | 59.1 µM | > 26.9 µM | > 31 µM | 22.1 µM |  | 7.83 µM | > 100 µM | > 100 µM | > 100 µM | > 22.9 µM
21 | CCC[CH2][Sn]1([CH2]CCC)[O]N=Cc2ccccc2[O]1 | 2.49 µM | 2.33 µM | 2.83 µM | 2.04 µM | 0.978 µM | 2.8 µM | 1.72 µM | 1.54 µM | 2.75 µM | 1.22 µM | 1.09 µM | 1.32 µM | 0.359 µM | 0.808 µM | 0.342 µM |  |  | 1.43 µM | 0.555 µM | 0.439 µM
